Measured values as given in patent US20160279175A1, “METHODS FOR REDUCING DEVELOPMENT OF RESISTANCE TO ANTIBIOTICS” (REGENTS OF THE UNIVERSITY OF MINNESOTA, priority 2015, published 2016).
Bridge positions count the residues as written; N and C are the ends. Ends that are not written are not given here.

Legend:
[1] = system: vancomycin-resistant E. faecium; format: cell-based, Enterococcus faecium; settings: for reduction of E. faecium counts, antibiotic combined with the three peptides: combination with Enterocin A, Enterocin P, Hiracin JM79; for synergy of the AMPs with the antibiotic: antibiotic combined with supernatant containing the three AMPs, data not shown; for activity of antibiotic alone against E. faecium: clinically relevant concentrations: 50 μg/mL streptomycin, 100 μg/mL ampicillin, 30 μg/mL rifampicin
Experimental: L. lactis containing pNZCA3 was grown overnight in BHI. Cells were then re-inoculated in fresh BHI at an OD600 of 0.07-0.1. Because BHI contains ˜0.15 M NaCl, no additional salt was added for induction. Cells were then grown ˜6 hours then cell-free culture supernatant was obtained by centrifugation of culture at 12,000×g at 4° C. for 10 min, filtered through 0.2 μm pore-size filters (Whatman Int. Ltd., Maidstone, UK), and stored at −20° C. until use.
E. faecium was grown overnight in BHI at 37° C. and L. lactis-pNZCA3 was grown in BHI at 32° C. E. faecium was then inoculated at an OD600 of ˜0.06 into 5 ml fresh BHI broth, and allowed to grow to an OD600 of ˜0.1. For antibiotic experiments, 50 μg/mL streptomycin (Chem-Implex Int'l Inc., Wood Dale, Ill., U.S.A.), 100 μg/mL ampicillin (Sigma), or 30 μg/mL rifampicin (Gilbert et al., 2013, The Sanford Guide to Antimicrobial Therapy 2013 43 Pocth Edition|Rent 9781930808744|11930808747. Antimicrob. Ther.) were added to the fresh BHI broth. Cultures were then supplemented with 10% of the previously obtained supernatant or 10% of L. lactis-pNZCA3 culture at an OD600 of ˜0.1 (time=0 hours). […] Samples of the cultures were then taken at different times, serial diluted, and plated (10 μL of each dilution) on GM17 plates containing 5 μg/mL rifampicin (GM17-Rif) or 5 μg/mL chloramphenicol (GM17-Cm) and incubated overnight at 37° C. The following day E. faecium or L. lactis colony forming units (CFU) were counted on GM17-Rif and GM17-Cm plates, respectively.
Data for FIG. 9 represent technical triplicates obtained from one of three individual tests.

[2] = system: wild type E. faecium 8E9 and EntA/EntP/HirJM79-resistant mutant of E. faecium 8E9; experiment: Agar diffusion assay of pure Enterocin B; format: cell-based, Enterococcus faecium; settings: 1 μg and 0.1 μg enterocin B
Experimental: For the agar diffusion activity assays, liquid brain heart infusion (BHI) agar was inoculated with 0.5 μL of E. faecium overnight culture per mL medium. The inoculated agar was then poured into a petri dish and allowed to solidify. For all L. lactis halos, a colony of L. lactis was touched with a sterile pipette tip then stabbed into the inoculated agar. For purified EntB halos (FIG. 14 only), 1 μL of the appropriate EntB concentration was dropped onto the inoculated agar and allowed to dry completely. Dry plates were then covered and incubated overnight at 37° C. for imaging the following day.

Compound	reduction of E. faecium counts, antibiotic combined with the three peptides [1]	synergy of the AMPs with the antibiotic [1]	activity of antibiotic alone against E. faecium [1]	halo size, wild type versus class IIa resistant mutant [2]
CC[C@H]1OC(=O)[C@H](C)[C@@H](O[C@H]2C[C@@](C)(OC)[C@@H](O)[C@H](C)O2)[C@H](C)[C@@H](O[C@@H]2O[C@H](C)C[C@H](N(C)C)[C@H]2O)[C@](C)(O)C[C@@H](C)C(=O)[C@H](C)[C@@H](O)[C@]1(C)O [erythromycin]	did not exhibit similarly impressive reductions	–	–	–
[H]/N=C(/N)N[C@H]1[C@H](O)[C@@H](O)[C@H](O[C@@H]2O[C@@H](C)[C@](O)(C=O)[C@H]2O[C@@H]2O[C@@H](CO)[C@H](O)[C@@H](O)[C@@H]2NC)[C@@H](N/C(N)=N\[H])[C@@H]1O [streptomycin]	–	minor	none of these drugs showed significant activity	–
O=C(N[C@H](CO)[C@H](O)c1ccc([N+](=O)[O-])cc1)C(Cl)Cl [chloramphenicol]	did not exhibit similarly impressive reductions	–	–	–
CC1(C)S[C@@H]2[C@H](NC(=O)[C@H](N)c3ccccc3)C(=O)N2[C@H]1C(=O)O [ampicillin]	did not exhibit similarly impressive reductions	minor	none of these drugs showed significant activity	–
Enterocin B: 53 amino acid bacteriocin of Enterococcus faecium, SEQ ID NO:42, disulfide bridge 23-52, synthesized by Ontores (ENDHRMPNELNRPNNLSKGGAKCGAAIAGGLFGIPKGPLAWAAGLANVYSKCN; disulfide 23-52)	–	–	–	similarly sized halos for both the wild type and resistant mutant
